Laboratory results from US20130331345A1, “PUERARIN HYDRATES, PREPARATION METHODS AND USES THEREOF” (priority 2010, published 2013).

Assays:
[1] = system: arrhythmia induced by aconitine; assay: Effects on arrhythmia caused by aconitine in rats; assay type: in vivo, SD rats; details: 200 mg · kg^−1 intravenous, n = 10, p < 0.05 vs physiological saline, monohydrate
Method: 20 SD rats, male and female, body weight 185±19 g, randomly divided into 2 groups, separately administrated via intravenous injection with physiological saline, puerarin monohydrate (prepared by method of Example 1) (which was added with cosolvent to form an injectable solution) 200 mg·kg^−1. The rats were anesthetized with 3% pentobarbital sodium 40 mg·kg^−1, and fixed in supine position on operating table. The rats were subjected to injection via sublingual vein, after 6 min, subjected to intravenous injection of 0.0025% aconitine at a constant rate, 2 μg·min^−1 (0.08 ml·min^−1), the time of ventricular premature beat (VP), ventricular tachycardia (VT), ventricular fibrillation (VF) and cardiac arrest (CA) were recorded, and corresponding dosages were calculated.

ACE = target: T1, ACE (Rattus norvegicus, UniProt P47820); assay: Effects on inhibiting ACE activity (rat blood serum after intraperitoneal injection); assay type: in vivo, Wistar rats
T1 construct: from tissue; host or cells: blood serum of Wistar rats
T1 sequence (P47820 36-1313): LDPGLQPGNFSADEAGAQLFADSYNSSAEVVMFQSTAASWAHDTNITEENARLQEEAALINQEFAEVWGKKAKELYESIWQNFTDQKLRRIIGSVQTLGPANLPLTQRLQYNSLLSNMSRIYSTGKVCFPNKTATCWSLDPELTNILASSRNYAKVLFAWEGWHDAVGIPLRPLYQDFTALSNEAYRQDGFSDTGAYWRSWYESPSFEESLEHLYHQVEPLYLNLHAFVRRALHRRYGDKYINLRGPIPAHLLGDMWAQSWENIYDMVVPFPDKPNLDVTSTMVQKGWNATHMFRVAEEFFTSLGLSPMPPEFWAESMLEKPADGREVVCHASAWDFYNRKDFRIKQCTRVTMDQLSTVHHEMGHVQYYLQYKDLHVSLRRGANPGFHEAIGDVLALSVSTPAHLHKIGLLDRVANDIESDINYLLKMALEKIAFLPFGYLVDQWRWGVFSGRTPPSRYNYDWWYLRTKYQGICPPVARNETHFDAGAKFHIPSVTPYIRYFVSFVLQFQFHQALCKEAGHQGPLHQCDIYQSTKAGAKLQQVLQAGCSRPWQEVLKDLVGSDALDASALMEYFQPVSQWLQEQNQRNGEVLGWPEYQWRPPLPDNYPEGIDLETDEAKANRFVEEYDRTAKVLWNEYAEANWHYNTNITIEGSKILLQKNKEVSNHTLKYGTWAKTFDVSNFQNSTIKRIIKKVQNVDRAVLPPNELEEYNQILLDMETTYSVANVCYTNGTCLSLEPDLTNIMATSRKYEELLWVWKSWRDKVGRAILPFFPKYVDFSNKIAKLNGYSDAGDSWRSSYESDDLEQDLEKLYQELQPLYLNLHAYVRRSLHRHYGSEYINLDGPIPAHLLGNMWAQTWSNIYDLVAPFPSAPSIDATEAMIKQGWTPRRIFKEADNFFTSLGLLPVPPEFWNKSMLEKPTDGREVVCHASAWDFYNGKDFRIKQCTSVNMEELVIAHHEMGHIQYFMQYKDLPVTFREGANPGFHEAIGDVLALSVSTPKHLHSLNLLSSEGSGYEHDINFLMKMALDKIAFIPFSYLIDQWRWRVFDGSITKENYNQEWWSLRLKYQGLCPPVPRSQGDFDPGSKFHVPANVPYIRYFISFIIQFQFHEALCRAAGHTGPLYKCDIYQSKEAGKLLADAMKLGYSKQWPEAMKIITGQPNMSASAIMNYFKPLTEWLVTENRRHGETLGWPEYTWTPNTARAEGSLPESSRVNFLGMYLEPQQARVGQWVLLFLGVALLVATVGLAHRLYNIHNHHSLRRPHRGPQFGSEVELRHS
Method: 24 Wistar rats, 280-300 g, were randomly divided into 3 groups, 8 rats per group, one group was control group, other two groups were separately 100 mg/kg, 200 mg/kg dose groups (which was added with cosolvent to form an injectable solution), subjected to intraperitoneal injection, the control group was administered with physiological saline. 60 min after administration, the rats were anesthetized with 1% pentobarbital sodium, subjected to thoracotomy and blood sample was taken from heart, the blood sample stood at room temperature for 30 min, centrifuged under 3500 r/min at low temperature for 10 min, the supernatant was taken and stored at about −65° C., for test. Measurement of ACE activity: referring to document [WANG, Fumin, et al, Chinese Journal of Laboratory Medicine, 1983, 6(3):145-151], the results were subjected to statistical treatment: the results were expressed in x±S, and data were subjected to analysis of variance and t-test.

[2] = system: chronic ocular hypertension; assay: Effects on chronic ocular hypertension of rabbits (dexamethasone model); assay type: in vivo; details: within 24 hours, puerarin hydrate 1% (W/V), betaxolol 0.5% (W/V), monohydrate
Method: Chronic Ocular Hypertension Models: 32 rabbits, half male and half female, were subjected to sub-conjunctive injection with 0.5 mg of dexamethasone under corneal limbus, once every other day, for consecutive 3 weeks, to obtain chronic ocular hypertension models, then randomly divided into physiological saline group, betaxolol group [0.5% (W/V)], puerarin hydrate group [1% (W/V)]. The maximum decrease of intraocular pressure was measured within 24 hours.

## O=c1c(-c2ccc(O)cc2)coc2c([C@@H]3O[C@H](CO)[C@@H](O)[C@H](O)[C@H]3O)c(O)ccc12 [Sample 1, puerarin monohydrate]
[1]; listed as PW
  Dose of aconitine causing cardiac arrest (CA): 0.0951 ± 0.0086 mg/kg
  Dose of aconitine causing ventricular fibrillation (VF): 0.0635 ± 0.0077 mg/kg
  Dose of aconitine causing ventricular premature beat (VP): 0.0331 ± 0.0073 mg/kg
  Dose of aconitine causing ventricular tachycardia (VT): 0.0449 ± 0.0072 mg/kg
[1]
  Dose of aconitine causing cardiac arrest (CA): significantly increased
  Dose of aconitine causing ventricular fibrillation (VF): significantly increased
  Dose of aconitine causing ventricular premature beat (VP): significantly increased
  Dose of aconitine causing ventricular tachycardia (VT): significantly increased
ACE; 100 and 200 mg/kg intraperitoneal, P<0.01
  rat blood serum ACE activity compared with the control group: dose-dependent decrease
ACE; rat, ip, rats, 100 mg/kg intraperitoneal, vs control group, read-out: inhibition rate (%)
  inhibition at 100 mg/kg: 36.1%
ACE; rats, 100 mg/kg intraperitoneal, blood taken 60 min after administration
  ACE (IU): 34.8 ± 6.19 IU
[2]
  Maximum decrease of intraocular pressure (mmHg): 2.6 mmHg
